Measurements as given in patent publication US20140303090A1, “Smac Mimetic Therapy” (TETRALOGIC PHARMACEUTICALS CORPORATION, priority 2013, published 2014).
Like-named read-outs stand apart in the source and are kept apart here. One block for each compound: values may come before it.

Legend:
[1] = target: XIAP BIR3 (Homo sapiens, UniProt P98170); assay: Fluorescence polarization displacement assay, XIAP BIR3
Text: (§7) To establish protein-ligand binding affinity, we employed a fluorescence polarization assay. This assay monitored the displacement of an IAP binding motif (IBM)-containing peptide, Abu-RPFK(5-carboxyfluorescein)-NH2, from the Type III BIR domains of cIAP1, cIAP2, XIAP, and ML-IAP.

[2] = test system: DAP-mediated NF-κB-luc (NOD1); assay: DAP-stimulated NF-kB luciferase reporter gene assay (NOD1 signaling) in HCT116 cells; type: cell-based, human; settings: for Inhibition of DAP-mediated NF-κB-luc, % Inhibition: 10 μM Smac mimetic, HCT116 cells
Experimental: (§1) To assay effects on XIAP E3 ubiquitin ligase activity manifested as NF-kB activation, we established both DAP- and MDP-stimulated luciferase reporter gene assays in which Smac mimetics are evaluated in cells at a single 10 μM drug concentration. Specifically, we developed stable cell lines with HCT116 cells (human colon cancer) that carry the NF-kB-luciferase reporter gene under the regulation of NF-kB promoter activation elements. The assay was carried out as follows: • 1. HCT116 (3-3) cells were cultured in white wall 96-wells plate (50,000 cells/50 μL/well) for overnight at 37° C. • 2. […] The luciferase activity in each well was measured by using Steady-Glo® Luciferase Assay System (Promega Corp.). 48 μL of luminescence detection reagent was added in each well, followed by brief agitation. The plate was left in dark for 15 minutes and then the luminescence activity was measured by using microplate reader Victor2 (PerkinElmer Life and Analytical Science, Shelton, Conn.). • 4. Calculation:
(§2) Luciferase activity in no ligand (i.e., […]) treatment wells=background (BG)
(§3) Luciferase activity in ligand only treatment wells=positive control (PC)
(§4) Luciferase activity in Smac mimetic (SM)+ligand treatment wells=Test • i) Test<PC
(§5) Inhibitory activity by SM(%)=100×[(PC−Test)/(PC−BG)] • ii) Test>PC
(§6) Activation by SM(%)=100×[(Test−BG)/(PC−BG)]

[3] = test system: MDP-mediated NF-κB-luc (NOD2); assay: MDP-stimulated NF-kB luciferase reporter gene assay (NOD2 signaling) in HCT116 cells; type: cell-based, human; settings: for Inhibition of MDP-mediated NF-κB-luc, % Inhibition: 10 μM Smac mimetic, HCT116 cells
Experimental: as §1, §2, §3, §4, §5, §6

[4] = target: T1, GFP-cIAP2 (Homo sapiens, UniProt Q13489); assay: GFP-cIAP2 degradation assay (loss of GFP signal, flow cytometry); type: cell-based
T1 construct: expressed in transfected cells
T1 sequence (Q13489 whole entry): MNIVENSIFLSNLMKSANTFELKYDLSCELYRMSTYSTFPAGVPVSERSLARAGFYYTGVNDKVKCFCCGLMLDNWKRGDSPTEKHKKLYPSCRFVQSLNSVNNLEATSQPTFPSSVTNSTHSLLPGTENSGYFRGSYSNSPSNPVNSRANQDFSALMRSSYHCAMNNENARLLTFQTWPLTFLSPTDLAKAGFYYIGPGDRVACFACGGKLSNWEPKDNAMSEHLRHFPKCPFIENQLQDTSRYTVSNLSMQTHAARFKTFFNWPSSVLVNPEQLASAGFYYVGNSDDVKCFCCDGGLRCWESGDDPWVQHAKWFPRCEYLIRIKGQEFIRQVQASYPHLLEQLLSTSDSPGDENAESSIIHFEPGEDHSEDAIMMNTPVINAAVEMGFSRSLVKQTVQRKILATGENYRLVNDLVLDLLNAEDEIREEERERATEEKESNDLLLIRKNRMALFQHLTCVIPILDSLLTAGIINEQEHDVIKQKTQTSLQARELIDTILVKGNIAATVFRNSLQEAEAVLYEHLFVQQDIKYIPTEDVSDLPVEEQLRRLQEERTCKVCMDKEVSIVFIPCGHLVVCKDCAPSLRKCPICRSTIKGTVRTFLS
Text: In this assay, treatment of GFP-cIAP-expressing melanoma cell line A375 with Smac mimetic, Compound 15, for two hours, results in degradation of cIAP-1 and cIAP-2 with concomitant loss of GFP-signal.

[5] = target: T1, GFP-cIAP2; assay: as above; type: cell-based; settings: read-out: ΔGFP-cIAP2 EC50, 24 h
[6] = test system: TNF-mediated NF-κB-luc
[7] = cited from earlier work
[8] = target: TRAF2-bound cIAP-2 (Homo sapiens, UniProt Q13489); assay: Anti-TRAF2 co-immunoprecipitation and western blot of TRAF2-bound cIAP-2 in GFP-cIAP-2 A375 cells; settings: 100 nM, 0 to 240 minutes
TRAF2-bound cIAP-2, sequence (Q13489 whole entry): as above
TRAF2-bound cIAP-2, sequence (Q12933 whole entry partner): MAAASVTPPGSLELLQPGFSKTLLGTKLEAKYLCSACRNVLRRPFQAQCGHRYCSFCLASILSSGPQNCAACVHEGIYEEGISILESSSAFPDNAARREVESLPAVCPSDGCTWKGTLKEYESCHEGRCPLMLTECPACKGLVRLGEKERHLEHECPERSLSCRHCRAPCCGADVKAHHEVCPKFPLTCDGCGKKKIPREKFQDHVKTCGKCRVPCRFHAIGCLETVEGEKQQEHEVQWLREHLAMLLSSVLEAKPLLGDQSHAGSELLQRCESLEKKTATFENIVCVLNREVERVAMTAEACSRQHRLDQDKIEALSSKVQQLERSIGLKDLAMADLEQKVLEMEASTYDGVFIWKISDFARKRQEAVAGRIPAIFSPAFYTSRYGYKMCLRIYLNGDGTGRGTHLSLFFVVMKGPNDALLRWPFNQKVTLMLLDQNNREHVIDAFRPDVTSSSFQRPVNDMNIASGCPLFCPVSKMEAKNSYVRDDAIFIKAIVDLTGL
Experimental: (§8) The stable cell lines expressing GFP-cIAP-1 or GFP-cIAP-2 were cultured in 10 cm dishes in sub-confluence overnight. […] The lysate was cleared by centrifugation (14000 rpm) at 4° C. for 10 minutes and the supernatant was subjected to the co-immunoprecipitation experiment. The protein concentration of the supernatant was measured by using Bradford reagent (Sigma). Co-immunoprecipitation was carried out with 600 μg of the total protein and 1 μg of anti-TRAF 2 antibody (Cell Signaling). After the incubation at 4° C. for overnight, 25 μL protein A/G beads (Invitrogen) was added to precipitate the immunocomplex. The beads were washed with the lysis buffer three times, followed by dissolving with 25 μL SDS-Loading buffer (Invitrogen).
(§9) The membrane was soaked with the blocking buffer (LICOR) for 30 minutes, followed by incubation with the primary antibodies, cIAP-1 and cIAP-2 (R&D Systems), at 4° C. for overnight. After the incubation, the membrane was washed three times with TBS-T buffer (Invitrogen) and incubated with IRDye anti-goat antibody (LICOR) at 37° C. for 45 minutes. Following 5 times washings, the membrane was scanned by The Odyssey Infrared Imaging System (LICOR).

[9] = target: cytoplasmic cIAP-2 (Homo sapiens, UniProt Q13489); assay: Western blot of cytoplasmic cIAP-2 in GFP-cIAP-2 A375 cells; settings: 100 nM, 0 to 240 minutes
cytoplasmic cIAP-2, sequence (Q13489 whole entry): as the sequence (Q13489 whole entry) above
Experimental: as §8, §9

[10] = target: cIAP-1 (cytoplasmic and TRAF2-bound) (Homo sapiens, UniProt Q13490); assay: Co-immunoprecipitation and western blot, cytoplasmic versus TRAF2-bound cIAP-1 in GFP-cIAP-1 A375 cells; settings: 100 nM, 0 to 240 minutes, visual
cIAP-1 (cytoplasmic and TRAF2-bound), sequence (Q13490 whole entry): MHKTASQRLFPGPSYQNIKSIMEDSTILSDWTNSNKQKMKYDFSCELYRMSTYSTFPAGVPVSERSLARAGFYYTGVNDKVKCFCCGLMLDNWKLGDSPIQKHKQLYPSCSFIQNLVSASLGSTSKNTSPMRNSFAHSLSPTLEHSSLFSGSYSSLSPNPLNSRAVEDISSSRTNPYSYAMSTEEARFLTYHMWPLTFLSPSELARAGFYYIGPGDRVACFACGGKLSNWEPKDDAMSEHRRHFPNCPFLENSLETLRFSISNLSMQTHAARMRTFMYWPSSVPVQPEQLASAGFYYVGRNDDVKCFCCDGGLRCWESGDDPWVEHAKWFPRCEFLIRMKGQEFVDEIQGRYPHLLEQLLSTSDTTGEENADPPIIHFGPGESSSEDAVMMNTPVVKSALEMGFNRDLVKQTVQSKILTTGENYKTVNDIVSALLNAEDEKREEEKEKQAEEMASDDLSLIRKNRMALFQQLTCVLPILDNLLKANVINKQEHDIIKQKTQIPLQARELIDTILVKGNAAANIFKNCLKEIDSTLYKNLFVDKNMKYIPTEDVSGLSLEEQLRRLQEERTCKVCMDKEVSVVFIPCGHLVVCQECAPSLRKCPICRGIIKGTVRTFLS
Experimental: as §8, §9

[11] = test system: xenograft; settings: cited from earlier work
[12] = Tolerability; settings: in vivo
Text: . Binding of IAP antagonists to cIAP1 proteins induces a conformational rearrangement that exposes the RING domain. Once exposed, the RING domain dimerizes and E3 ubiquitin ligase activity is activated. Using a range of assays that evaluated cIAP1 stability; NF-κB activation; cIAP1 oligomeric state; […]. Birinapant-induced loss of cIAPs correlated with inhibition of TNF-mediated NF-κB activation, caspase activation, tumor cell killing, and tumor regression. Birinapant was well-tolerated. […]. […]; (ii.) decreased affinity for XIAP BIR3; (iii.) decreased ability to inhibit XIAP-dependent NOD signaling, despite its activity in an XIAP-dependent caspase-3 activation assay; and, (iv.) decreased pro-inflammatory IL-1β secretion. […]

[13] = target: cIAP2 BIR3 (Homo sapiens, UniProt Q13489); assay: Fluorescence polarization displacement assay, cIAP2 BIR3; settings: for Ki: read-out: cIAP2 BIR3, Ki
cIAP2 BIR3, sequence (Q13489 238-349 limits assumed): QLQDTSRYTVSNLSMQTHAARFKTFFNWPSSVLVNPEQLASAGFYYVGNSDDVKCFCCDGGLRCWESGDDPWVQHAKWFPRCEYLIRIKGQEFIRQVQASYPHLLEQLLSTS
Text: as §7

[14] = test system: Xiap−/− murine BMDMs; assay: IL-1β secretion from LPS-primed XIAP knockout bone marrow-derived macrophages; type: cell-based; settings: 24 h
Experimental: We thus evaluated a selection of Smac-mimetics in both LPS-primed wild-type (WT) and XIAP knockout (Xiap^−/−) murine BMDMs to assess their capacity to induce the secretion of IL-1β following treatment with Smac-mimetic (FIG. 4).
WT and Xiap^−/− BMDMs were primed with LPS±the indicated concentration of Smac-mimetics for 24 h. WT BMDM results are presented as the mean±SEM (n=3 biological independent repeats).

[15] = test system: WT murine BMDMs; assay: IL-1β secretion from LPS-primed WT bone marrow-derived macrophages; type: cell-based; settings: 24 h
Text: Given the heightened activity of 2 versus 1 on cIAP2, we speculated that the improved tolerability of 1 might also be associated with reduced antagonism of XIAP functional activity in this system. We thus evaluated a selection of Smac-mimetics in both LPS-primed wild-type (WT) and XIAP knockout (Xiap^−/−) murine BMDMs to assess their capacity to induce the secretion of IL-1β following treatment with Smac-mimetic (FIG. 4).
WT and Xiap^−/− BMDMs were primed with LPS±the indicated concentration of Smac-mimetics for 24 h. WT BMDM results are presented as the mean±SEM (n=3 biological independent repeats). […] Total levels of IL-1β induced by Smac-mimetics in these assays varied but the trend was identical.

[16] = read-out: ΔGFP-cIAP2 EC50, 2 h, 2 h, A375 cells

XIAP BIR3, sequence (P98170 241-356 limits assumed): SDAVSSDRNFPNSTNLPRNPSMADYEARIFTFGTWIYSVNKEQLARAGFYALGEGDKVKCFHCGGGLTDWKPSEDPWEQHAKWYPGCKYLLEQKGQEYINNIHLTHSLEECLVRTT

Kd ([1]; read-out: XIAP BIR3 Kd): < 1 nM
Compound: CN[C@@H](C)C(=O)N[C@H](C(=O)N1C[C@@H](O)C[C@H]1Cc1c(Cc2[nH]c3cc(F)ccc3c2C[C@@H]2C[C@H](O)CN2C(=O)[C@@H](NC(=O)[C@H](C)NC)C(C)(C)C)[nH]c2cc(F)ccc12)C(C)(C)C [(12)]
Inhibition of DAP-mediated NF-κB-luc, % Inhibition [2]: 99 (+/−2) %
Inhibition of MDP-mediated NF-κB-luc, % Inhibition [3]: 98 (+/−2) %

DC50 [4, 16]: 5720 ± 157 nM
DC50 [5]: 5540 ± 115 nM
EC50 [6]: 4980 ± 996 nM
Compound: CC[C@@H](NC(=O)[C@H](C)NC)C(=O)N1C[C@@H](O)C[C@H]1Cc1c(-c2[nH]c3cc(F)ccc3c2C[C@@H]2C[C@H](O)CN2C(=O)[C@@H](CC)NC(=O)[C@H](C)NC)[nH]c2cc(F)ccc12 [compound 4]

Compound: CC[C@H](NC(=O)[C@H](C)NC)C(=O)N1C[C@@H](O)C[C@H]1Cc1c(-c2[nH]c3cc(F)ccc3c2C[C@@H]2C[C@H](O)CN2C(=O)[C@@H](CC)NC(=O)[C@H](C)NC)[nH]c2cc(F)ccc12 [compound 3]
reduced ability to degrade GFP-cIAP2 relative to 1 [4]: 100 fold
DC50 [4, 16]: > 10000 nM
DC50 [5]: 4930 ± 1600 nM
Inhibition of MDP-mediated NF-KB-luc @ 2 h, % Inhibition [3]: No
EC50 [6]: 1730 ± 985 nM

Compound: CN[C@@H](C)C(=O)N[C@H](C(=O)N1C[C@@H](O)C[C@H]1Cc1c(-c2[nH]c3cc(F)ccc3c2C[C@@H]2C[C@H](O)CN2C(=O)[C@@H](NC(=O)[C@H](C)NC)[C@@H](C)OC)[nH]c2cc(F)ccc12)[C@@H](C)OC [Compound 5]
tolerability in rats compared to Compound 15 [7]: less well-tolerated
degradation of TRAF2-bound cIAP-2 [8]: degraded
degradation of cytoplasmic cIAP-2 [9]: degraded
extent of degradation of cytoplasmic cIAP-1 versus cIAP-1 bound to TRAF2 [10]: approximately the same
antitumor activity compared to Compound 15 [11]: comparable antitumor activity

Compound: CN[C@@H](C)C(=O)N[C@H](C(=O)N1C[C@@H](O)C[C@H]1Cc1c(Cc2[nH]c3cc(F)ccc3c2C[C@@H]2C[C@H](O)CN2C(=O)[C@@H](NC(=O)[C@H](C)NC)C(C)(C)C)[nH]c2cc(F)ccc12)C(C)(C)C [(14)]
Inhibition of DAP-mediated NF-κB-luc, % Inhibition [2]: 74 (+/−14) %
Inhibition of MDP-mediated NF-κB-luc, % Inhibition [3]: 86 (+/−9) %

Compound: CN[C@@H](C)C(=O)N[C@H](C(=O)N1C[C@@H](O)C[C@H]1Cc1c(Cc2[nH]c3cc(F)ccc3c2C[C@@H]2C[C@H](O)CN2C(=O)[C@@H](NC(=O)[C@H](C)NC)C(C)(C)C)[nH]c2cc(F)ccc12)C(C)(C)C [(13)]
Inhibition of DAP-mediated NF-κB-luc, % Inhibition [2]: No inhibition
Inhibition of MDP-mediated NF-κB-luc, % Inhibition [3]: No inhibition

Compound: CC[C@H](NC(=O)[C@H](C)NC)C(=O)N1C[C@@H](O)C[C@H]1Cc1c(-c2[nH]c3cc(F)ccc3c2C[C@@H]2C[C@H](O)CN2C(=O)[C@H](CC)NC(=O)[C@H](C)NC)[nH]c2cc(F)ccc12 [birinapant (1), birinapant]
Inhibition of DAP-mediated NF-κB-luc, % Inhibition ([2]; listed as 1): ca. 35%
Inhibition of DAP-mediated NF-κB-luc, % Inhibition ([2]; listed as Birinapant (1)): 35 (+/−16) %
Inhibition of DAP-mediated NF-KB-luc @ 2 h, % Inhibition ([2]; @ 2 h): 35 ± 16%
degradation of TRAF2-bound cIAP-2 [8]: degraded
tolerability [12]: well-tolerated
reduction of affinity for cIAP2 BIR3 compared with Compound A [13]: approximately 40 fold
Ki [13]: 36 nM
Ki ([13]; listed as Birinapant): ~36 nM
EC50 [4, 16]: 108 ± 46 nM
degradation of cytoplasmic cIAP-2 [9]: substantially non-degraded
IL-1β secretion in Xiap−/− BMDMs [14]: induced IL-1β secretion
IL-1β secretion from LPS-primed WT BMDMs [15]: no increase in IL-1β secretion
EC50 [5]: 151 ± 86 nM
Inhibition of MDP-mediated NF-κB-luc, % Inhibition ([3]; listed as 1): ca. 35%
Inhibition of MDP-mediated NF-κB-luc, % Inhibition ([3]; listed as Birinapant (1)): 35 (+/−14) %
Inhibition of MDP-mediated NF-KB-luc @ 2 h, % Inhibition [3]: 35 ± 14%
EC50 [6]: 9 ± 5 nM

Kd [1]: < 1 nM
Compound: CN[C@@H](C)C(=O)N[C@H](C(=O)N1C[C@@H](O)C[C@H]1Cc1c(Cc2[nH]c3cc(F)ccc3c2C[C@@H]2C[C@H](O)CN2C(=O)[C@@H](NC(=O)[C@H](C)NC)C(C)(C)C)[nH]c2cc(F)ccc12)C(C)(C)C [(11)]
Inhibition of DAP-mediated NF-κB-luc, % Inhibition [2]: 100 (n = 1) %
Inhibition of MDP-mediated NF-κB-luc, % Inhibition [3]: 100 (n = 2) %

DC50 [4, 16]: > 10000 nM
DC50 [5]: > 10000 nM
EC50 [6]: > 10000 nM
Compound: CC[C@@H](NC(=O)[C@@H](C)NC)C(=O)N1C[C@H](O)C[C@@H]1Cc1c(-c2[nH]c3cc(F)ccc3c2C[C@H]2C[C@@H](O)CN2C(=O)[C@@H](CC)NC(=O)[C@@H](C)NC)[nH]c2cc(F)ccc12 [compound 5, ent-birinapant]
